Data reported in publication PMC6934184, “Selective DNA-PKcs inhibition extends the therapeutic index of localized radiotherapy and chemotherapy” (The Journal of Clinical Investigation, 2019).

Molecular target: T1, MAPK14 (p38 alpha) (Homo sapiens, UniProt Q16539)
T1 construct: purchased Thermo Fisher Scientific (Life Technologies) SelectScreen
Test: SelectScreen Z'LYTE
Assay type: biochemical
Outline: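 NU5455 was profiled across the SelectScreen Broad panel of kinase activity and binding assays. Z'LYTE reactions such as CSF1R ran at apparent Km ATP, while the Adapta CAMK1 assay used ATP listed as 10. Values are given as percent.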

T1 sequence (Q16539 whole entry): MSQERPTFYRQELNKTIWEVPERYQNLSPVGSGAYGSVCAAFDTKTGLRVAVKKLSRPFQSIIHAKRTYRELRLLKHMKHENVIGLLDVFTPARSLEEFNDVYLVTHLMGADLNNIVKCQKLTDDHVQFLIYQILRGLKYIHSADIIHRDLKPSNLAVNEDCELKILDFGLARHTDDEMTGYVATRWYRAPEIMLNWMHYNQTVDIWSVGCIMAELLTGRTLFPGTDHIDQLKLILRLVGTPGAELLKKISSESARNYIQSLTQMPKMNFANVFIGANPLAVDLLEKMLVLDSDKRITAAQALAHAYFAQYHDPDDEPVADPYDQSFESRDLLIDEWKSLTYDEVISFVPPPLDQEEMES

CN(C(=O)CN1CCOCC1)c1ccc2sc3c(-c4cccc5c(=O)cc(N6CC7CCC(C6)O7)oc45)cccc3c2c1 [NU5455]
inhibition at 1 µM: 9.7%
